pIC50: −log10 of the molar value.
Target: Beta-3 Adrenergic Receptor (Homo sapiens (Human), UniProt P13945)
Test: HTRF cAMP antagonist assay (IC50 determination)
Type: cell-based
Settings: CHO-K1 cells stably expressing recombinant receptor; antagonism of isoproterenol at EC90; cAMP readout
Outline: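 Antagonist mode: isoproterenol at its predetermined EC90 added after compound to recombinant CHO-K1 cells in IBMX-containing PBS, 1 h, room temperature. Compounds tested as 5-fold, 10-point dilutions, top final typically 10 or 100 μM. HTRF signal converted to cAMP via standard curve, giving IC50.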

Chain of Beta-3 Adrenergic Receptor (P13945 whole entry, species assumed): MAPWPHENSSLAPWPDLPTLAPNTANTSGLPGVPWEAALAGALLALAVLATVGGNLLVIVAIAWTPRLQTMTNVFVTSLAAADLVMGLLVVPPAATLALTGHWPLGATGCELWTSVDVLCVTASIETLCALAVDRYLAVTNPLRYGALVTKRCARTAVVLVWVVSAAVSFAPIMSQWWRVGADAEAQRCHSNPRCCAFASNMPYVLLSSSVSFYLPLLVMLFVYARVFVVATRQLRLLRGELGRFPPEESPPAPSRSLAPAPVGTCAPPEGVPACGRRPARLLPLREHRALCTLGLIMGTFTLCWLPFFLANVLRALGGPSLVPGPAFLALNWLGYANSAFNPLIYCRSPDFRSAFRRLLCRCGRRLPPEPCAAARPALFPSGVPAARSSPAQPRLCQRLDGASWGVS

Row | SMILES | pIC50
1 | NC1(c2ccc(-c3cccc(S(=O)(=O)N4CCC5(CC4)C[C@@H](NC[C@H](O)COc4cccc(S(=O)(=O)C6(CO)CC6)c4)CO5)c3)cc2)CC1 [Compound 173, (S)-1-((R)-8-(4′-(1-aminocyclopropyl)biphenyl-3-ylsulfonyl)-1-oxa-8-azaspiro[4.5]decan-3-ylamino)-3-(3-(1-(hydroxymethyl)cyclopropylsulfonyl)phenoxy)propan-2-ol] | 7.51
2 | CCOc1ccc(-c2ccc(C(C)(C)CN)cc2)cc1S(=O)(=O)N1CCC2(CC1)C[C@@H](NC[C@H](O)COc1cccc(S(=O)(=O)C3(CO)CC3)c1)CO2 [Compound 174, (S)-1-((R)-8-(4′-(1-amino-2-methylpropan-2-yl)-4-ethoxybiphenyl-3-ylsulfonyl)-1-oxa-8-azaspiro[4.5]decan-3-ylamino)-3-(3-(1-(hydroxymethyl)cyclopropylsulfonyl)phenoxy)propan-2-ol] | 6.16
3 | CCOc1ccc(-c2ccc(CCNC(C)=O)cc2)cc1S(=O)(=O)N1CCC2(CC1)C[C@@H](NC[C@H](O)COc1cccc(S(=O)(=O)C3(CO)CC3)c1)CO2 [Compound 175, N-(2-(4′-ethoxy-3′-((R)-3-((S)-2-hydroxy-3-(3-(1-(hydroxymethyl)cyclopropylsulfonyl)phenoxy)propylamino)-1-oxa-8-azaspiro[4.5]decan-8-ylsulfonyl)biphenyl-4-yl)ethyl)acetamide] | 6.15
4 | CCOc1ccc(-c2ccc(C(C)(C)CN)cc2)cc1S(=O)(=O)N1CCC2(CC1)C[C@H](NC[C@H](O)COc1cccc(S(=O)(=O)C3(CO)CC3)c1)CO2 [Compound 176, (S)-1-((S)-8-(4′-(1-amino-2-methylpropan-2-yl)-4-ethoxybiphenyl-3-ylsulfonyl)-1-oxa-8-azaspiro[4.5]decan-3-ylamino)-3-(3-(1-(hydroxymethyl)cyclopropylsulfonyl)phenoxy)propan-2-ol] | 7.23
5 | CCOc1ccc(-c2ccc(CCNC(C)=O)cc2)cc1S(=O)(=O)N1CCC2(CC1)C[C@H](NC[C@H](O)COc1cccc(S(=O)(=O)C3(CO)CC3)c1)CO2 [Compound 177, N-(2-(4′-ethoxy-3′-((S)-3-((S)-2-hydroxy-3-(3-(1-(hydroxymethyl)cyclopropylsulfonyl)phenoxy)propylamino)-1-oxa-8-azaspiro[4.5]decan-8-ylsulfonyl)biphenyl-4-yl)ethyl)acetamide] | 7.30
6 | CCOc1ccc(-c2ccc(CN)cc2)cc1S(=O)(=O)N1CCC2(CC1)C[C@@H](NC[C@H](O)COc1cccc(S(=O)(=O)CC(N)=O)c1)CO2 [Compound 179, 2-(3-((S)-3-((R)-8-(4′-(aminomethyl)-4-ethoxybiphenyl-3-ylsulfonyl)-1-oxa-8-azaspiro[4.5]decan-3-ylamino)-2-hydroxypropoxy)phenylsulfonyl)acetamide] | 7.31
7 | CC(C)(CN)c1ccc(-c2cccc(S(=O)(=O)N3CCC4(CC3)C[C@H](NC[C@H](O)COc3cccc(S(=O)(=O)C5(CO)CC5)c3)CO4)c2)cc1 [Compound 180, (S)-1-((S)-8-(4′-(1-amino-2-methylpropan-2-yl)biphenyl-3-ylsulfonyl)-1-oxa-8-azaspiro[4.5]decan-3-ylamino)-3-(3-(1-(hydroxymethyl)cyclopropylsulfonyl)phenoxy)propan-2-ol] | 7.51
8 | CC(C)(CN)c1ccc(-c2cccc(S(=O)(=O)N3CCC4(CC3)C[C@@H](NC[C@H](O)COc3cccc(S(=O)(=O)C5(CO)CC5)c3)CO4)c2)cc1 [Compound 181, (S)-1-((R)-8-(4′-(1-amino-2-methylpropan-2-yl)biphenyl-3-ylsulfonyl)-1-oxa-8-azaspiro[4.5]decan-3-ylamino)-3-(3-(1-(hydroxymethyl)cyclopropylsulfonyl)phenoxy)propan-2-ol] | 6.75
9 | NCc1ccc(-c2cccc(S(=O)(=O)N3CCC4(CC3)C[C@H](NC[C@H](O)COc3cccc(S(=O)(=O)C5(CO)CC5)c3)CO4)c2)cc1F [Compound 182, (S)-1-((S)-8-(4′-(aminomethyl)-3′-fluorobiphenyl-3-ylsulfonyl)-1-oxa-8-azaspiro[4.5]decan-3-ylamino)-3-(3-(1-(hydroxymethyl)cyclopropylsulfonyl)phenoxy)propan-2-ol] | 7.61
10 | O=C(O)CS(=O)(=O)c1cccc(OC[C@@H](O)CN[C@H]2COC3(CCN(S(=O)(=O)c4cnc5ccccc5c4)CC3)C2)c1 [Compound 183, 2-(3-((S)-2-hydroxy-3-((R)-8-(quinolin-3-ylsulfonyl)-1-oxa-8-azaspiro[4.5]decan-3-ylamino)propoxy)phenylsulfonyl)acetic acid] | 5.80
11 | NC1(c2ccc(-c3cccc(S(=O)(=O)N4CCC5(CC4)C[C@H](NC[C@H](O)COc4cccc(S(=O)(=O)C6(CO)CC6)c4)CO5)c3)cc2)CC1 [Compound 184, (S)-1-((S)-8-(4′-(1-aminocyclopropyl)biphenyl-3-ylsulfonyl)-1-oxa-8-azaspiro[4.5]decan-3-ylamino)-3-(3-(1-(hydroxymethyl)cyclopropylsulfonyl)phenoxy)propan-2-ol] | 7.57
12 | O=S(=O)(c1cncc(Br)c1)N1CCC2(CC1)C[C@@H](NC[C@H](O)COc1cccc(S(=O)(=O)C3(CO)CC3)c1)CO2 [Compound 185, (S)-1-((R)-8-(5-bromopyridin-3-ylsulfonyl)-1-oxa-8-azaspiro[4.5]decan-3-ylamino)-3-(3-(1-(hydroxymethyl)cyclopropylsulfonyl)phenoxy)propan-2-ol] | 6.59
13 | O=S(=O)(c1cncc(Br)c1)N1CCC2(CC1)C[C@H](NC[C@H](O)COc1cccc(S(=O)(=O)C3(CO)CC3)c1)CO2 [Compound 186, (S)-1-((S)-8-(5-bromopyridin-3-ylsulfonyl)-1-oxa-8-azaspiro[4.5]decan-3-ylamino)-3-(3-(1-(hydroxymethyl)cyclopropylsulfonyl)phenoxy)propan-2-ol] | 7.10
14 | CCOc1ccc(-c2ccc(CN)cc2)cc1S(=O)(=O)N1CCC2(CC1)C[C@H](NC[C@H](O)COc1cccc(S(=O)(=O)C(C)(C)CO)c1)CO2 [Compound 187, 2-(3-((S)-3-((S)-8-(4′-(aminomethyl)-4-ethoxybiphenyl-3-ylsulfonyl)-1-oxa-8-azaspiro[4.5]decan-3-ylamino)-2-hydroxypropoxy)phenylsulfonyl)-2-methylpropan-1-ol] | 7.48
15 | CCOc1ccc(-c2ccc(C3(N)CC3)cc2)cc1S(=O)(=O)N1CCC2(CC1)C[C@H](NC[C@H](O)COc1cccc(S(=O)(=O)C3(CO)CC3)c1)CO2 [Compound 188, (S)-1-((S)-8-(4′-(1-aminocyclopropyl)-4-ethoxybiphenyl-3-ylsulfonyl)-1-oxa-8-azaspiro[4.5]decan-3-ylamino)-3-(3-(1-(hydroxymethyl)cyclopropylsulfonyl)phenoxy)propan-2-ol] | 7.46
16 | NCc1ccc(-c2cccc(S(=O)(=O)N3CCC4(CC3)C[C@@H](NC[C@H](O)COc3cccc(S(=O)(=O)C5CC5)c3)CO4)c2)cc1 [Compound 189, (S)-1-((R)-8-(4′-(aminomethyl)biphenyl-3-ylsulfonyl)-1-oxa-8-azaspiro[4.5]decan-3-ylamino)-3-(3-(cyclopropylsulfonyl)phenoxy)propan-2-ol] | 7.99
17 | CC(=O)NCCc1ccc(-c2cccc(S(=O)(=O)N3CCC4(CC3)C[C@H](NC[C@H](O)COc3cccc(S(=O)(=O)C5(CO)CC5)c3)CO4)c2)cc1 [Compound 190, N-(2-(3′-((S)-3-((S)-2-hydroxy-3-(3-(1-(hydroxymethyl)cyclopropylsulfonyl)phenoxy)propylamino)-1-oxa-8-azaspiro[4.5]decan-8-ylsulfonyl)biphenyl-4-yl)ethyl)acetamide] | 7.50
18 | CC(=O)NCCc1ccc(-c2cccc(S(=O)(=O)N3CCC4(CC3)C[C@@H](NC[C@H](O)COc3cccc(S(=O)(=O)C5(CO)CC5)c3)CO4)c2)cc1 [Compound 191, N-(2-(3′-((R)-3-((S)-2-hydroxy-3-(3-(1-(hydroxymethyl)cyclopropylsulfonyl)phenoxy)propylamino)-1-oxa-8-azaspiro[4.5]decan-8-ylsulfonyl)biphenyl-4-yl)ethyl)acetamide] | 6.36
19 | Cc1c(Br)cccc1S(=O)(=O)N1CCC2(CC1)C[C@@H](NC[C@H](O)COc1cccc(S(=O)(=O)C3(CO)CC3)c1)CO2 [Compound 192, (S)-1-((R)-8-(3-bromo-2-methylphenylsulfonyl)-1-oxa-8-azaspiro[4.5]decan-3-ylamino)-3-(3-(1-(hydroxymethyl)cyclopropylsulfonyl)phenoxy)propan-2-ol] | 6.53
20 | COc1ccc(S(=O)(=O)N2CCC3(CC2)C[C@@H](NC[C@H](O)COc2cccc(S(=O)(=O)C4(CO)CC4)c2)CO3)cc1Br [Compound 193, (S)-1-((R)-8-(3-bromo-4-methoxyphenylsulfonyl)-1-oxa-8-azaspiro[4.5]decan-3-ylamino)-3-(3-(1-(hydroxymethyl)cyclopropylsulfonyl)phenoxy)propan-2-ol] | 7.57
21 | Cc1cc(S(=O)(=O)N2CCC3(CC2)C[C@@H](NC[C@H](O)COc2cccc(S(=O)(=O)C4(CO)CC4)c2)CO3)ccc1Br [Compound 194, (S)-1-((R)-8-(4-bromo-3-methylphenylsulfonyl)-1-oxa-8-azaspiro[4.5]decan-3-ylamino)-3-(3-(1-(hydroxymethyl)cyclopropylsulfonyl)phenoxy)propan-2-ol] | 7.86
22 | O=S(=O)(c1cccnc1)N1CCC2(CC1)C[C@@H](NC[C@H](O)COc1cccc(S(=O)(=O)C3(CO)CC3)c1)CO2 [Compound 195, (S)-1-(3-(1-(hydroxymethyl)cyclopropylsulfonyl)phenoxy)-3-((R)-8-(pyridin-3-ylsulfonyl)-1-oxa-8-azaspiro[4.5]decan-3-ylamino)propan-2-ol] | 5.82
23 | Cc1cc(S(=O)(=O)N2CCC3(CC2)C[C@H](NC[C@H](O)COc2cccc(S(=O)(=O)C4(CO)CC4)c2)CO3)ccc1Br [Compound 196, (S)-1-((S)-8-(4-bromo-3-methylphenylsulfonyl)-1-oxa-8-azaspiro[4.5]decan-3-ylamino)-3-(3-(1-(hydroxymethyl)cyclopropylsulfonyl)phenoxy)propan-2-ol] | 7.46

Source: US10927123B2, “Modulators of the beta-3 adrenergic receptor useful for the treatment or prevention of disorders related thereto” (Arena Pharmaceuticals, Inc., priority 2016, dated 2021)
